Test results taken from US20110086759A1, “CHEMICAL COMPOUNDS” (SYNGENTA CROP PROTECTION, INC., priority 2007, published 2011).

Legend:
Type in all cases: in vivo
[1] = system: Amaranthus retoflexus (AMARE); experiment: Post-emergence biological efficacy, glasshouse pot test; settings: Amaranthus retroflexus, 312 h
Procedure, shortened: (§1)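 Scored 13 days after spraying on a 0 (no damage) to 100 (total damage) scale. Treatment was a post-emergence spray at 1000 or 250 g/ha, from acetone/water 50:50 plus 0.5% Tween 20, onto 8-day-old plants in soil pots. Growth at 24/16° C, 14 h photoperiod, 65% humidity, watered twice daily.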

[2] = system: Echinochloa crus-galli (ECHCG); experiment: as above; settings: 312 h
Procedure, shortened: as §1

[3] = system: Setaria faberi (SETFA); experiment: as above; settings: 312 h
Procedure, shortened: as §1

[4] = system: Solanum nigrum (SOLNI); experiment: as above; settings: 312 h
Procedure, shortened: as §1

[5] = system: Alopecurus myosuroides (ALOMY); experiment: as above; settings: 312 h
Procedure, shortened: as §1

[6] = system: Ipomea hederaceae (IPOHE); experiment: as above; settings: Ipomoea hederacea, 312 h
Procedure, shortened: as §1

[7] = system: Amaranthus retoflexus (AMARE); experiment: Pre-emergence biological efficacy, glasshouse pot test; settings: Amaranthus retroflexus, 312 h
Procedure, shortened: (§2)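 Damage was rated on a 0–100 scale 13 days after treatment, with plants kept at 24/16° C, 14 h light and 65% humidity. The pre-emergence spray, at 1000 or 250 g/ha in acetone/water 50:50 with 0.5% Tween 20, was applied one day after sowing.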

[8] = system: Echinochloa crus-galli (ECHCG); experiment: as above; settings: 312 h
Procedure, shortened: as §2

[9] = system: Setaria faberi (SETFA); experiment: as above; settings: 312 h
Procedure, shortened: as §2

[10] = system: Solanum nigrum (SOLNI); experiment: as above; settings: 312 h
Procedure, shortened: as §2

[11] = system: Alopecurus myosuroides (ALOMY); experiment: as above; settings: 312 h
Procedure, shortened: as §2

[12] = system: Ipomea hederaceae (IPOHE); experiment: as above; settings: Ipomoea hederacea, 312 h
Procedure, shortened: as §2

[13] = post-emergence, 1,000 g/ha, evaluated after 13 days (100=total damage; 0=no damage), read-out: Percentage damage caused to weed species, AMARE
[14] = post-emergence, 1,000 g/ha, evaluated after 13 days (100=total damage; 0=no damage), read-out: Percentage damage caused to weed species, ECHCG
[15] = post-emergence, 1,000 g/ha, evaluated after 13 days (100=total damage; 0=no damage), read-out: Percentage damage caused to weed species, SETFA
[16] = post-emergence, 1,000 g/ha, evaluated after 13 days (100=total damage; 0=no damage), read-out: Percentage damage caused to weed species, SOLNI
[17] = post-emergence, 1,000 g/ha, evaluated after 13 days (100=total damage; 0=no damage), read-out: Percentage damage caused to weed species, ALOMY
[18] = post-emergence, 1,000 g/ha, evaluated after 13 days (100=total damage; 0=no damage), read-out: Percentage damage caused to weed species, IPOHE
[19] = pre-emergence, 1,000 g/ha, evaluated after 13 days (100=total damage; 0=no damage), read-out: Percentage damage AMARE
[20] = pre-emergence, 1,000 g/ha, evaluated after 13 days (100=total damage; 0=no damage), read-out: Percentage damage ECHCG
[21] = pre-emergence, 1,000 g/ha, evaluated after 13 days (100=total damage; 0=no damage), read-out: Percentage damage SETFA
[22] = pre-emergence, 1,000 g/ha, evaluated after 13 days (100=total damage; 0=no damage), read-out: Percentage damage SOLNI
[23] = pre-emergence, 1,000 g/ha, evaluated after 13 days (100=total damage; 0=no damage), read-out: Percentage damage ALOMY
[24] = pre-emergence, 1,000 g/ha, evaluated after 13 days (100=total damage; 0=no damage), read-out: Percentage damage IPOHE
[25] = Rate 1,000 g/ha, post-emergence spray, evaluated after 13 days (100=total damage to plant; 0=no damage to plant), read-out: Percentage damage caused to weed species, post-emergence, AMARE
[26] = Rate 1,000 g/ha, post-emergence spray, evaluated after 13 days (100=total damage to plant; 0=no damage to plant), read-out: Percentage damage caused to weed species, post-emergence, ECHCG
[27] = Rate 1,000 g/ha, post-emergence spray, evaluated after 13 days (100=total damage to plant; 0=no damage to plant), read-out: Percentage damage caused to weed species, post-emergence, SETFA
[28] = Rate 1,000 g/ha, post-emergence spray, evaluated after 13 days (100=total damage to plant; 0=no damage to plant), read-out: Percentage damage caused to weed species, post-emergence, SOLNI
[29] = Rate 1,000 g/ha, post-emergence spray, evaluated after 13 days (100=total damage to plant; 0=no damage to plant), read-out: Percentage damage caused to weed species, post-emergence, ALOMY
[30] = Rate 1,000 g/ha, post-emergence spray, evaluated after 13 days (100=total damage to plant; 0=no damage to plant), read-out: Percentage damage caused to weed species, post-emergence, IPOHE
[31] = pre-emergence, rate 1,000 g/ha, evaluated after 13 days (100=total damage to plant; 0=no damage), read-out: Percentage damage caused to weed species, AMARE
[32] = pre-emergence, rate 1,000 g/ha, evaluated after 13 days (100=total damage to plant; 0=no damage), read-out: Percentage damage caused to weed species, ECHCG
[33] = pre-emergence, rate 1,000 g/ha, evaluated after 13 days (100=total damage to plant; 0=no damage), read-out: Percentage damage caused to weed species, SETFA
[34] = pre-emergence, rate 1,000 g/ha, evaluated after 13 days (100=total damage to plant; 0=no damage), read-out: Percentage damage caused to weed species, SOLNI
[35] = pre-emergence, rate 1,000 g/ha, evaluated after 13 days (100=total damage to plant; 0=no damage), read-out: Percentage damage caused to weed species, ALOMY
[36] = pre-emergence, rate 1,000 g/ha, evaluated after 13 days (100=total damage to plant; 0=no damage), read-out: Percentage damage caused to weed species, IPOHE

SMILES	pest or weed control at 1000 g/ha [1, 13]	pest or weed control at 1000 g/ha [2, 14]	pest or weed control at 1000 g/ha [3, 15]	pest or weed control at 1000 g/ha [4, 16]	pest or weed control at 1000 g/ha [5, 17]	pest or weed control at 1000 g/ha [6, 18]	pest or weed control at 1000 g/ha [7, 19]	pest or weed control at 1000 g/ha [8, 20]	pest or weed control at 1000 g/ha [9, 21]	pest or weed control at 1000 g/ha [10, 22]	pest or weed control at 1000 g/ha [11, 23]	pest or weed control at 1000 g/ha [12, 24]	pest or weed control at 1000 g/ha [1, 25]	pest or weed control at 1000 g/ha [2, 26]	pest or weed control at 1000 g/ha [3, 27]	pest or weed control at 1000 g/ha [4, 28]	pest or weed control at 1000 g/ha [5, 29]	pest or weed control at 1000 g/ha [6, 30]	pest or weed control at 1000 g/ha [7, 31]	pest or weed control at 1000 g/ha [8, 32]	further results
O=C(O)c1nc(C2CC2)nc(NCc2ccccc2)c1Cl [Compound 1-60, 5-Chloro-2-cyclopropyl-4-phenylmethyamino pyrimidtne-6-carboxylic acid]	100%	70%	90%	90%	50%	100%	90%	20%	0%	90%	20%	100%									
COC(=O)c1nc(-c2cc(Cl)c(Cl)cc2Cl)nc(NCc2ccco2)c1Cl [Compound 228-48, 5-Chloro-4-(furan-2-ylmethylamino)-6-methoxycarbonyl-2-(2,4,5-trichloro-phenyl)pyrimidine]													70%	0%	20%	30%	20%	10%	30%	0%	pest or weed control at 1000 g/ha [9, 33]: 0%; pest or weed control at 1000 g/ha [10, 34]: 0%; pest or weed control at 1000 g/ha [11, 35]: 0%; pest or weed control at 1000 g/ha [12, 36]: 0%
CCN(Cc1ccnc(C)n1)c1nc(C2CC2)nc(C(=O)OC)c1Cl [Compound 6-161, 5-Chloro-2-cyclopropyl-4-[N-ethyl-N-(2-methylpyrimidin-4-ylmethyl)-amino]-6-methoxycarbonyl-pyrimidine]													70%	0%	30%	70%	0%	80%	100%	0%	pest or weed control at 1000 g/ha [9, 33]: 0%; pest or weed control at 1000 g/ha [10, 34]: 20%; pest or weed control at 1000 g/ha [11, 35]: 0%; pest or weed control at 1000 g/ha [12, 36]: 80%
O=C(O)c1nc(C2CC2)nc(NC2CC2)c1Cl [Compound 1-1, 5-Chloro-2-cyclopropyl-4-cyclopropylamino-pyrimidine-6-carboxylic acid]	100%	40%	80%	90%	40%	80%	100%	20%	0%	90%	20%	90%									
COC(=O)c1nc(C2CC2)nc(NCc2c(C)cc(Cl)cc2Cl)c1Cl [Compound 4-121, 5-Chloro-2-cyclopropyl-4-(2,4-dichloro-6-methylphenylmethyl-amino)-6-methoxy-carbonylpyrimidine]	100%	60%	70%	90%	20%	100%	20%	0%	0%	0%	0%	20%									
